This experiment addresses GLP-1R (Homo sapiens, UniProt P43220). The experiment can be described thus: Agonist activity on GLP-1R, HTRF cAMP detection in stably transfected GLP-1R/HEK293 cells. It counts as cell-based. Particulars: for EC50: 30 min incubation; for Max activity: relative to top concentration of reference GLP-1(7-37). The procedure:
Detection of Agonist Activity of the Test Compounds on GLP-1R
• 1) The test compound was dissolved in DMSO and diluted 4-fold with Bravo for a total of 10 concentration gradients (the starting concentration was 1 mM). […] HBSS (10 mL) pre-warmed at 37° C. was added, mixed gently, and centrifuged at 1000 rpm for 5 minutes. The supernatant was discarded and another 10 mL of […] was added and mixed gently. […] The plate was shaken to mix at 2000 rpm for 60 seconds. • 7) The cells in the 384-well plate were incubated in CO2 cell incubator at 37° C. for 30 min. • 8) 10 μL of HTRF cAMP detection solution was added to the 384-well plate, stick with sealing film, and incubated at room temperature for 1 hour. • 9) After 1 hour of incubation, the sealing film was removed. The plate was put into the EnVision microplate reader to read the values of OD665 nm and OD615 nm.

A value given as a limit tells only on which side of the number the result lay.

GLP-1R, sequence (P43220 24-463): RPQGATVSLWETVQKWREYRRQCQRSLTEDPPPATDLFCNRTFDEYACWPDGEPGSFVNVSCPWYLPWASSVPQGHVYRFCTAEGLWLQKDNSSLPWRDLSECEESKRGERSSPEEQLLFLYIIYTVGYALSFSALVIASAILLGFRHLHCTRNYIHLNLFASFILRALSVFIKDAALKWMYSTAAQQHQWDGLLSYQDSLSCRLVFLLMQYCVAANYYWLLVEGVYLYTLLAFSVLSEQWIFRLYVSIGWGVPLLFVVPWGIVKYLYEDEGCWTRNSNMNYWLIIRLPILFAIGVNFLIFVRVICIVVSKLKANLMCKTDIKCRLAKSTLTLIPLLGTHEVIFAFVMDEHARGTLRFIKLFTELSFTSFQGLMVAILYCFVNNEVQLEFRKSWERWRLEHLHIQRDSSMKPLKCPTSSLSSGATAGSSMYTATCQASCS

Consider `CC(C)n1cncc1Cn1c(CN2CCC(Oc3cccc(COc4ccc(Br)cc4F)c3)CC2)nc2ccc(C(=O)O)cc21` [Compound C30, 2-((4-(3-((4-bromo-2-fluorophenoxy)methyl)phenoxy)piperidin-1-yl)methyl)-1-((1-isopropyl-1H-imidazol-5-yl)methyl)-1H-benzo[d]imidazole-6-carboxylic acid], for which the EC50 was 5.85 nM and the Max activity turned out to be 121.2%. On to `CC(C)n1cncc1Cn1c(CN2CCC(Oc3cccc(COc4ccc(C#N)cc4F)n3)CC2)nc2ccc(C(=O)O)cc21` [Compound C31, 2-((4-((6-((4-cyano-2-fluorophenoxy)methyl)pyridin-2-yl)oxy)piperidin-1-yl)methyl)-1-((1-isopropyl-1H-imidazol-5-yl)methyl)-1H-benzo[d]imidazole-6-carboxylic acid], for which the EC50 amounted to 0.833 nM and the Max activity is given as 106.6%. The matching figures for `CC(C)n1cncc1Cn1c(CN2CCC(Oc3cccc(COc4ccc(C#N)cc4F)c3)CC2)nc2ccc(C(=O)O)cc21` [Compound C32]: 0.768 nM and 114.3%. The matching figures for `N#Cc1ccc(OCc2cccc(OC3CCN(Cc4nc5ccc(C(=O)O)cc5n4Cc4cncn4CC4CC4)CC3)n2)c(F)c1` [Compound C33, 2-((4-((6-((4-cyano-2-fluorophenoxy)methyl)pyridin-2-yl)oxy)piperidin-1-yl)methyl)-1-((1-(cyclopropylmethyl)-1H-imidazol-5-yl)methyl)-1H-benzo[d]imidazole-6-carboxylic acid]: 0.068 nM and 99.1%. Take `CCN1C(=O)CCC1Cn1c(CN2CCC(Oc3cccc(COc4ccc(C#N)cc4F)n3)CC2)nc2ccc(C(=O)O)cc21` (stereo not drawn) [Compound C34, 2-((4-((6-((4-cyano-2-fluorophenoxy)methyl)pyridin-2-yl)oxy)piperidin-1-yl)methyl)-1-((1-ethyl-5-oxopyrrolidin-2-yl)methyl)-1H-benzo[d]imidazole-6-carboxylic acid]: the EC50 worked out at 11 nM and the Max activity turned out to be 113.6%. As for `CCN1CCC[C@H]1Cn1c(CN2CCC(Oc3cccc(COc4ccc(C#N)cc4F)n3)CC2)nc2ccc(C(=O)O)cc21` [Compound C35, (S)-2-((4-((6-((4-cyano-2-fluorophenoxy)methyl)pyridin-2-yl)oxy)piperidin-1-yl)methyl)-1-((1-ethylpyrrolidin-2-yl)methyl)-1H-benzo[d]imidazole-6-carboxylic acid], the EC50 is above 100 nM.

Regarding `Cc1cc(C(=O)O)cc2c1nc(CN1CCC(Oc3cccc(COc4ccc(C#N)cc4F)c3)CC1)n2C[C@@H]1CCO1` [Compound C36], a half-maximal effect (EC50) was put at 3.92 nM and the Max activity is 104.0%. The matching figures for `CCn1cncc1Cn1c(CN2CCC(Sc3cccc(COc4ccc(C#N)cc4F)n3)CC2)nc2ccc(C(=O)O)cc21` [Compound C37, 2-((4-((6-((4-cyano-2-fluorophenoxy)methyl)pyridin-2-yl)thio)piperidin-1-yl)methyl)-1-((1-ethyl-1H-imidazol-5-yl)methyl)-1H-benzo[d]imidazole-6-carboxylic acid]: 0.223 nM and 121.0%. As for `CCn1cncc1Cn1c(CN2CCN(Cc3cccc(COc4ccc(C#N)cc4F)n3)CC2)nc2ccc(C(=O)O)cc21` [Compound C38, 2-((4-((6-((4-cyano-2-fluorophenoxy)methyl)pyridin-2-yl)methyl)piperazin-1-yl)methyl)-1-((1-ethyl-1H-imidazol-5-yl)methyl)-1H-benzo[d]imidazole-6-carboxylic acid], the half-maximal effective concentration (EC50) was above 100 nM. In the case of `CCn1nccc1Cn1c(CN2CCC(Oc3cccc(COc4ccc(C#N)cc4F)n3)CC2)nc2ccc(C(=O)O)cc21` [Compound C39, 2-((4-((6-((4-cyano-2-fluorophenoxy)methyl)pyridin-2-yl)oxy)piperidin-1-yl)methyl)-1-((1-ethyl-1H-pyrazol-5-yl)methyl)-1H-benzo[d]imidazole-6-carboxylic acid], the EC50 is 7.93 nM and the Max activity was 142.8%. Regarding `CCn1nc(C)cc1Cn1c(CN2CCC(Oc3cccc(COc4ccc(C#N)cc4F)n3)CC2)nc2ccc(C(=O)O)cc21` [Compound C40, 2-((4-((6-((4-cyano-2-fluorophenoxy)methyl)pyridin-2-yl)oxy)piperidin-1-yl)methyl)-1-((1-ethyl-3-methyl-1H-pyrazol-5-yl)methyl)-1H-benzo[d]imidazole-6-carboxylic acid], the midpoint of the response, the EC50, lay at 6.5 nM and the Max activity is on record as 90.7%.

Regarding `N#Cc1ccc(OCc2cccc(SC3CCN(Cc4nc5ccc(C(=O)O)cc5n4C[C@@H]4CCO4)CC3)n2)c(F)c1` [Compound C41, (S)-2-((4-((6-((4-cyano-2-fluorophenoxy)methyl)pyridin-2-yl)thio)piperidin-1-yl)methyl)-1-(oxetan-2-ylmethyl)-1H-benzo[d]imidazole-6-carboxylic acid], it took 4.16 nM to reach a half-maximal effect (EC50) and the Max activity turned out to be 122.3%. `N#Cc1ccc(OCc2cccc(OC3CCN(Cc4cc5ccc(C(=O)O)cc5n4CC4CCO4)CC3)n2)c(F)c1` (stereo not drawn) [Compound C42, 2-((4-((6-((4-cyano-2-fluorophenoxy)methyl)pyridin-2-yl)oxy)piperidin-1-yl)methyl)-1-(oxetan-2-ylmethyl)-1H-indole-6-carboxylic acid] yielded an EC50 above 100 nM. In the case of `N#Cc1ccc(COc2cccc(Oc3cc(F)c(Cc4nc5c(F)cc(C(=O)O)cc5n4C[C@@H]4CCO4)cc3F)n2)c(F)c1` [Compound C43, (S)-2-(4-((6-((4-cyano-2-fluorobenzyl)oxy)pyridin-2-yl)oxy)-2,5-difluorobenzyl)-4-fluoro-1-(oxetan-2-ylmethyl)-1H-benzo[d]imidazole-6-carboxylic acid], the EC50 came to 5.31 nM and the Max activity is recorded as 88.8%. On to `N#Cc1ccc(OCc2cccc(OC3CCN(Cc4nc5ccc(C(=O)O)cc5n4CC4COC4)CC3)n2)c(F)c1` [Compound C82, 2-((4-((6-((4-cyano-2-fluorophenoxy)methyl)pyridin-2-yl)oxy)piperidin-1-yl)methyl)-1-(oxetan-3-ylmethyl)-1H-benzo[d]imidazole-6-carboxylic acid], for which the EC50 was 7.48 nM and the Max activity is given as 90.7%. Regarding `N#Cc1ccc(OCc2nc(OC3CCN(Cc4nc5ccc(C(=O)O)cc5n4C[C@@H]4CCO4)CC3)ccc2F)c(F)c1` [Compound C83, (S)-2-((4-((6-((4-cyano-2-fluorophenoxy)methyl)-5-fluoropyridin-2-yl)oxy)piperidin-1-yl)methyl)-1-(oxetan-2-ylmethyl)-1H-benzo[d]imidazole-6-carboxylic acid], the midpoint of the response, the EC50, lay at 0.705 nM and the Max activity is 111.1%.

Regarding `N#CCC1(Cn2c(CN3CCC(Oc4cccc(COc5ccc(Cl)cc5F)n4)CC3)nc3ccc(C(=O)O)cc32)CC1` [Compound C84, 2-((4-((6-((4-chloro-2-fluorophenoxy)methyl)pyridin-2-yl)oxy)piperidin-1-yl)methyl)-1-((1-(cyanomethyl)cyclopropyl)methyl)-1H-benzo[d]imidazole-6-carboxylic acid], the EC50 worked out at 0.246 nM and the Max activity was 136.4%. The matching figures for `N#Cc1ccc(COc2cccc(OCC3CCN(Cc4nc5ccc(C(=O)O)cc5n4C[C@@H]4CCO4)CC3)n2)c(F)c1` [Compound S1]: 1400 nM and 93.7%.

Values taken from patent US20250282757A1, “ARYL ETHER-SUBSTITUTED HETEROCYCLIC COMPOUNDS AS GLP1R AGONISTS” (MINDRANK AI LTD., priority 2021, published 2025).
